Assay results: patent publication US20120208809A1, “9H-PYRROLO[2,3-B: 5,4-C'] DIPYRIDINE AZACARBOLINE DERIVATIVES, PREPARATION THEREOF, AND THERAPEUTIC USE THEREOF” (SANOFI, priority 2009, published 2012)

Key:
[1] = target: PLK1 (Homo sapiens, UniProt P53350); test: Biochemical results, IC50 PLK1
[2] = target: T1, Pim-3 (Homo sapiens, UniProt Q86V86); test: TR-FRET assay of Pim kinase activity (phosphorylation of Bad Ser112), Pim-3; assay type: biochemical; settings: ATP 40 μM, read-out: IC50 Pim3
T1 construct: full-length human recombinant His6-labelled Pim-1, Pim-2 or Pim-3 protein; His6; made in house
Procedure, shortened: (§1)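 Full-length His6-tagged human Pim-1, -2 or -3 phosphorylate full-length His6-Bad at 40 μM ATP; phospho-Ser112 detected by TR-FRET (Eu anti-phosphoBad, APC anti-His6), 665/615 nm ratio. Compounds run at 10 concentrations in duplicate, typically top 30 μM; IC50 from 4-parameter logistic fit.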

[3] = tested on: phosphoBAD (JEKO); test: Level of phosphorylation of Bad by ELISA, JEKO cell line; assay type: cell-based; settings: Homo sapiens, JEKO cells, 3 hours at 37° C.
Method: (§2) The activity of the molecules is evaluated on the JEKO or DND-41 cell line by measuring the level of phosphorylation of Bad and the total Bad content, via the ELISA technique.
(§3) The JEKO or DND-41 cells are resuspended at a concentration of 500 000 cells per ml. The cells are then diluted in RPMI-1640 medium containing 20% foetal calf serum. 225 μl of cells are placed in a plate. Serial dilutions of the molecules are then performed (8 points, three-fold dilution, range started at 10 mM). Each dilution point is then diluted to 1/100 in medium. Next, 25 μl of each of the concentrations are added to the cells and then incubated for 3 hours at 37° C.
(§4) 100 μl of the cells are transferred into a plate treated with poly-D-Lysine. The plate is then incubated for 5-10 minutes at 37° C. and then centrifuged for 5 minutes at 1500 rpm. A volume of 100 μl of 8% fixing solution (solution of formaldehyde in PBS buffer) is added to each of the wells. After covering with a self-adhesive film and a lid, the plate is incubated for 20 minutes at room temperature and then stored at 4° C. overnight.
(§5) Next, the liquid is removed and two successive washes are performed with washing buffer. 100 μl of quenching buffer are added, followed by incubating for 15 minutes at room temperature. After washing, 100 μl of […] at room temperature. After washing, 50 μl of primary antibody diluted to 1/250 for pBAD (Cell Signaling Cat#5284) and to 1/500 for Bad (MBL Cat#591) are added to each of the plates. Each plate is incubated for 2 hours at room temperature. After two washes, 50 μl of secondary antibody (diluted to 1/16) are added to the pBAD plate (tebu-bio ref; FE-021) and 50 μl of the HRP-conjugated IgG secondary antibody (Santa Cruz Cat #SC-2004; diluted to 1/1000) are added to the Bad plate. Incubation for 1 hour at room temperature is performed. Four washes with the washing solution are performed, followed by three washes with PBS. Finally, 100 μl of the developing solution are added, followed by incubation for 10 minutes. Finally, 100 μl of the quenching solution are added, before reading at 450 nm.

[4] = target: T2, Pim-1 (Homo sapiens, UniProt P11309); test: TR-FRET assay of Pim kinase activity (phosphorylation of Bad Ser112), Pim-1; assay type: biochemical; settings: ATP 40 μM, read-out: IC50 Pim1
T2 construct: full-length human recombinant His6-labelled Pim-1, Pim-2 or Pim-3 protein; His6; made in house
Procedure, shortened: as §1

[5] = tested on: EOL-1; test: Cell viability assay (CellTiter-Blue), EOL-1; assay type: cell-based; settings: Homo sapiens, EOL1, read-out: EC50 EOL-1 μM (eosinophilic leukaemia), EOL-1 cells, read-out: EC50 EOL-1 μM (lymphoma);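 further: EOL-1 is an acute myeloid eosinophilic leukaemia line not a lymphoma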
Excerpt: (§6) The representative compounds of the invention are also screened as regards their effects on cell proliferation and viability, using a variety of tumoral cell lines of human source, representative of different pathological indications. These cell lines include:
Models of Haematological Cancers: • TF-1 (acute myelogenic leukaemia; AML M6 at the time of diagnosis); • K G-1 (AML; erythroleukaemia evolving into AML); • KG-1a (AML; subclone derived from immature KG-1); • EOL-1 (AML: eosinophilic leukaemia); • PL-21 (AML; M3); • ML-2 (AML; T-NHL evolving into T-ALL evolving into AML M4); • HL-60 (AML, M3); • Kasumi-1 (AML); • GDM-1 (AML); • K-562 (CML—chronic myelogenic leukaemia; blastic crisis); • JURL-MK1 (CML; blastic crisis); • DND-41 (T-ALL—T-cell acute lymphoblastic leukaemia); • Jurkat (T-ALL); NALM-6 (B-ALL B-cell ALL); • CEM (ALL; lymphosarcoma evolving into ALL); • Jeko-1 (B-NHL—B-cell non-Hodgkin lymphoma; lymphoma with coat cells derived from a large-cell variant in leukaemic transformation); • WSU-DLCL2 (B-NHL; diffuse lymphoma with large B cells); • RL (B-NHL; undifferentiated diffuse); • OCl-Ly10 (B-NHL); • DoHH-2 (B-NHL); • RPMI-8226 (MM—multiple myelomas); • JVM-2 (B-CLL—B-cell chronic lymphocytic leukaemia); and • JVM-3 (B-CLL).
(§7) In order to measure the viability, the tumour cells are incubated in 96-well or 384-well format for 48, 72 or 96 hours, preferably 72 hours, with a compound of the invention at dilutions of a factor 3, with, in general, nine doses in total, the highest dose being equal to 10 μM or 30 μM. The cell viability is evaluated by adding CellTiter-Blue® (Promega, Madison, Wis., United States) for 4 hours and endpoint readings are taken using a SpectraMax Genmini EM plate reader (Molecular Devices, Sunnyvale, Calif., United States). The CellTiter-Blue® cell viability assay measures the ability of the cells in culture to reduce resazurin to resorufin, the intensity of the fluorescence signal being directly proportional to the number of live cells. The EC50 represents the concentration of compound that leads to a 50% reduction of the viability/proliferative expansion of the cells.

[6] = target: T3, Pim-2 (Homo sapiens, UniProt Q9P1W9); test: TR-FRET assay of Pim kinase activity (phosphorylation of Bad Ser112), Pim-2; assay type: biochemical; settings: ATP 40 μM, read-out: IC50 Pim2
T3 construct: full-length human recombinant His6-labelled Pim-1, Pim-2 or Pim-3 protein; His6; made in house
Procedure, shortened: as §1

[7] = tested on: MV4-11; test: Cell viability assay (CellTiter-Blue), MV4-11; assay type: cell-based; settings: Homo sapiens, read-out: EC50 MV4-11 μM (acute myeloid leukemia), MV4-11 cells, read-out: EC50 MV4-11 μM (myeloma)
Method: as §6, §7

[8] = target: CDK1 (Homo sapiens, UniProt P06493); test: Biochemical results, IC50 CDK1
[9] = tested on: MOLM-13; test: Cell viability assay (CellTiter-Blue), MOLM-13; assay type: cell-based; settings: Homo sapiens, read-out: EC50 MOLM-13 μM, MOLM-13 cells, read-out: EC50 MOLM-13 μM (myeloma)
Method: as §6, §7

[10] = tested on: phosphoBAD (DND-41); test: Level of phosphorylation of Bad by ELISA, DND-41 cell line; assay type: cell-based; settings: Homo sapiens, DND41, DND-41 cells, 3 hours at 37° C.
Method: as §2, §3, §4, §5

CDK1, sequence (P06493 whole entry, species assumed): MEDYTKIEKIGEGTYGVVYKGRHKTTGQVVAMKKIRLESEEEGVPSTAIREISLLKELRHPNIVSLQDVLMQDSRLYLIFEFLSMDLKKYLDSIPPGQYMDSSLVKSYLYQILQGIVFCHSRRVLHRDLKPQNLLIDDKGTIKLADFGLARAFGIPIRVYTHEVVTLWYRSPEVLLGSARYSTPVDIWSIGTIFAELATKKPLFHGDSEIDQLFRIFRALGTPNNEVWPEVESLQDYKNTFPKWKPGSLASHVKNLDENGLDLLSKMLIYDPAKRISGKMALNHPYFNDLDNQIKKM
CDK1, sequence (P14635 whole entry partner, species assumed): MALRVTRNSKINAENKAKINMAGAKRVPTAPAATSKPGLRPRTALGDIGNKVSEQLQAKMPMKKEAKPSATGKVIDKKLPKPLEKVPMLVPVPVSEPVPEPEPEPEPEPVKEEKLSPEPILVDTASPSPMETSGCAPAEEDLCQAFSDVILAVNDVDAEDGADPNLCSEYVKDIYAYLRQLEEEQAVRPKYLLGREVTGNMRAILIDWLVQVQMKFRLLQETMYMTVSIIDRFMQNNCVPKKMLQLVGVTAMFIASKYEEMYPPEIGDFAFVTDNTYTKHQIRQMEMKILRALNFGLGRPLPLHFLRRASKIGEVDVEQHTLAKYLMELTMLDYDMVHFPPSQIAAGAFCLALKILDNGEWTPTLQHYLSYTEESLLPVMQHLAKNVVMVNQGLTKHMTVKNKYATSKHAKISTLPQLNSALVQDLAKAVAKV
PLK1, sequence (P53350 whole entry, species assumed): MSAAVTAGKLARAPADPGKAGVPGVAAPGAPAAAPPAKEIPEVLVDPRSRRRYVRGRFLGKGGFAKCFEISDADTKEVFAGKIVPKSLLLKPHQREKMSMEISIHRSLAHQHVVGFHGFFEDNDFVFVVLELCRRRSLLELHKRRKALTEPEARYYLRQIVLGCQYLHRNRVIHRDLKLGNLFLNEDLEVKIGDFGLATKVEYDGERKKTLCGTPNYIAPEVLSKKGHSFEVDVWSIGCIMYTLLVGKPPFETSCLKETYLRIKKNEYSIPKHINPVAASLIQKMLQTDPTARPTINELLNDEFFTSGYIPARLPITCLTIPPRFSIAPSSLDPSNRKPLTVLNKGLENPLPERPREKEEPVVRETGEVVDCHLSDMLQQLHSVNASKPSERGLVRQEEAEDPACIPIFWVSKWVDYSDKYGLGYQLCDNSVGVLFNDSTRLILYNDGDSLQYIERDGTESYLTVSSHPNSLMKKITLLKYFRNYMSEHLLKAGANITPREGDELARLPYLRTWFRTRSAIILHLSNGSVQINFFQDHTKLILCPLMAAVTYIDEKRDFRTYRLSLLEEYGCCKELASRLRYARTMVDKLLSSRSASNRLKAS
T2 sequence (P11309 whole entry): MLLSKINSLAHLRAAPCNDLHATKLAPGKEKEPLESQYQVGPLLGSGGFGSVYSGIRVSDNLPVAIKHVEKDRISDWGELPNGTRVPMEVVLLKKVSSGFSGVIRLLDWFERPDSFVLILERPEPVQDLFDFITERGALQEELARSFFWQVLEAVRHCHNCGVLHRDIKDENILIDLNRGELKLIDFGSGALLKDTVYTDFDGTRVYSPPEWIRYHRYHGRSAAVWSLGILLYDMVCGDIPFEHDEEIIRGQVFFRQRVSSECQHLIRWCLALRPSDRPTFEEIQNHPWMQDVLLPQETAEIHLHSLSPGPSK
T3 sequence (Q9P1W9 whole entry): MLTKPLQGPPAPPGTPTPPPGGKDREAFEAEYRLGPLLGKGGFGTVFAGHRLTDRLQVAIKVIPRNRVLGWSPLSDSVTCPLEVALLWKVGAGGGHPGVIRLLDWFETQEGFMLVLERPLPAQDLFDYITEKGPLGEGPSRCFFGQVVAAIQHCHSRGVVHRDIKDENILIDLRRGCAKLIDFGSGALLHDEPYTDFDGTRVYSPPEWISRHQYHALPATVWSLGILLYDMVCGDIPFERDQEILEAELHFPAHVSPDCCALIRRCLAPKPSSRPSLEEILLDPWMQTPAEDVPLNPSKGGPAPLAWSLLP

IC50 [1]	IC50 [2]	IC50 [3]	IC50 [4]	IC50 [6]	EC50 [7]	IC50 [8]	EC50 [9]	IC50 [10]	SMILES	EC50 [5]
0.1 to 1 µM	< 0.1 µM	1 to 5 µM	< 0.1 µM	< 0.1 µM		1 to 5 µM			CC(C)(N)CNC(=O)c1ccc(-c2c(F)cnc3[nH]c4cnc(-c5cccnc5)cc4c23)cc1 [Example 26, N-(2-amino-2-methylpropyl)-4-[3-fluoro-6-(pyridin-3-yl)-9H-pyrrolo[2,3-b:5,4-c′]dipyridin-4-yl]benzamide]	
0.1 to 1 µM	< 0.1 µM	0.1 to 1 µM	< 0.1 µM	< 0.1 µM		1 to 5 µM		0.1 to 1 µM	CN(C)CCN(C)C(=O)c1ccc(-c2c(F)cnc3[nH]c4cnc(-c5cccnc5)cc4c23)cc1 [Example 23, N-[2-(dimethylamino)ethyl]-4-[3-fluoro-6-(pyridin-3-yl)-9H-pyrrolo[2,3-b:5,4-c′]dipyridin-4-yl]-N-methylbenzamide]	
1 to 5 µM	< 0.1 µM		< 0.1 µM	< 0.1 µM	0.1 to 1 µM	0.1 to 1 µM	0.1 to 1 µM		CN(C)CCCNC(=O)c1ccc(-c2c(F)cnc3[nH]c4cnc(-c5cnn(C)c5)cc4c23)cc1 [Example 38]	< 0.1 µM
1 to 5 µM	< 0.1 µM	0.1 to 1 µM	< 0.1 µM	1 to 5 µM	0.1 to 1 µM	1 to 5 µM		1 to 5 µM	CN1CCN(CCNC(=O)c2ccc(-c3c(F)cnc4[nH]c5cnc(-c6cccnc6)cc5c34)cc2)CC1 [Example 24, 4-[3-fluoro-6-(pyridin-3-yl)-9H-pyrrolo[2,3-b:5,4-c′]dipyridin-4-yl]-N-[2-(4-methylpiperazin-1-yl)ethyl]benzamide]	0.1 to 1 µM
1 to 5 µM	< 0.1 µM	1 to 5 µM	< 0.1 µM	1 to 5 µM	0.1 to 1 µM	1 to 5 µM		0.1 to 1 µM	CN1CCC(CNC(=O)c2ccc(-c3c(F)cnc4[nH]c5cnc(-c6cccnc6)cc5c34)cc2)CC1 [Example 25, 4-[3-fluoro-6-(pyridin-3-yl)-9H-pyrrolo[2,3-b:5,4-c′]dipyridin-4-yl]-N-[(1-methylpiperidin-4-yl)methyl]benzamide]	0.1 to 1 µM

Second part, the molecule before the results:

SMILES	IC50 [1]	IC50 [2]	IC50 [3]	IC50 [4]	IC50 [6]	EC50 [7]	IC50 [8]	EC50 [9]	IC50 [10]	EC50 [5]
CN1CCC(NC(=O)c2ccc(-c3c(F)cnc4[nH]c5cnc(-c6cccnc6)cc5c34)cc2)CC1 [Example 22, 4-[3-fluoro-6-(pyridin-3-yl)-9H-pyrrolo[2,3-b:5,4-c′]dipyridin-4-yl]-N-(1-methylpiperidin-4-yl)benzamide]	1 to 5 µM	< 0.1 µM	1 to 5 µM	< 0.1 µM	0.1 to 1 µM	0.1 to 1 µM	1 to 5 µM			0.1 to 1 µM
O=C(NCCN1CCOCC1)c1ccc(-c2c(F)cnc3[nH]c4cnc(-c5cccnc5)cc4c23)cc1 [Example 21, 4-[3-fluoro-6-(pyridin-3-yl)-9H-pyrrolo[2,3-b:5,4-c′]dipyridin-4-yl]-N-[2-(morpholin-4-yl)ethyl]benzamide]	1 to 5 µM	< 0.1 µM		< 0.1 µM	1 to 5 µM	0.1 to 1 µM	0.1 to 1 µM	0.1 to 1 µM		0.1 to 1 µM
O=C(NC1CC1)c1ccc(-c2c(F)cnc3[nH]c4cnc(-c5cccnc5)cc4c23)cc1 [Example 11, N-cyclopropyl-4-[3-fluoro-6-(pyridin-3-yl)-9H-pyrrolo[2,3-b:5,4-c′]dipyridin-4-yl]benzamide]		0.1 to 1 µM	0.1 to 1 µM	< 0.1 µM	1 to 5 µM					
CN(C)CCNC(=O)c1cccc(-c2c(F)cnc3[nH]c4cnc(-c5cccnc5)cc4c23)c1 [Example 12, N-[2-(dimethylamino)ethyl]-3-[3-fluoro-6-(pyridin-3-yl)-9H-pyrrolo[2,3-b:5,4-c′]dipyridin-4-yl]benzamide]	1 to 5 µM	< 0.1 µM		< 0.1 µM	1 to 5 µM	1 to 5 µM	1 to 5 µM	0.1 to 1 µM		0.1 to 1 µM
O=C(NCCCN1CCCC1)c1ccc(-c2c(F)cnc3[nH]c4cnc(-c5cccnc5)cc4c23)cc1 [Example 20, 4-[3-fluoro-6-(pyridin-3-yl)-9H-pyrrolo[2,3-b:5,4-c′]dipyridin-4-yl]-N-[3-(pyrrolidin-1-yl)propyl]benzamide]	0.1 to 1 µM	< 0.1 µM		< 0.1 µM	0.1 to 1 µM		0.1 to 1 µM	0.1 to 1 µM		0.1 to 1 µM
CN1CCN(NC(=O)c2ccc(-c3c(F)cnc4[nH]c5cnc(-c6cccnc6)cc5c34)cc2)CC1 [Example 7, 4-[3-fluoro-6-(pyridin-3-yl)-9H-pyrrolo[2,3-b:5,4-c′]dipyridin-4-yl]-N-(4-methylpiperazin-1-yl)benzamide]	0.1 to 1 µM	< 0.1 µM		< 0.1 µM	0.1 to 1 µM	0.1 to 1 µM	1 to 5 µM	0.1 to 1 µM		< 0.1 µM
CN(C)CCCNC(=O)c1ccc(-c2c(F)cnc3[nH]c4cnc(-c5cccnc5)cc4c23)cc1 [Example 10, N-[3-(dimethylamino)propyl]-4-[3-fluoro-6-(pyridin-3-yl)-9H-pyrrolo[2,3-b:5,4-c′]dipyridin-4-yl]benzamide]	1 to 5 µM	< 0.1 µM		< 0.1 µM	0.1 to 1 µM	0.1 to 1 µM	1 to 5 µM	0.1 to 1 µM		0.1 to 1 µM
